Reference: patent US20240148821A1, “PHARMACEUTICAL USE OF CYCLIC PEPTIDE COMPOUND” (CHUGAI SEIYAKU KABUSHIKI KAISHA, priority 2021, published 2024)
Numbered stars: 1 amine (or outer) side, 2 acyl side, 3 side chain; on linkers, the order of the positions; unused ones are H or OH. Bridge positions count the residues as written; N and C are the ends. Square brackets hold non-standard residues; d marks the D form. Peptide text beside a SMILES is read from it. * marks the point of attachment. hPhe(3-Cl-4-CF3) = N[C@@H](CCc1ccc(C(F)(F)F)c(Cl)c1)C(=O)O; X46 = CN([C@@H](CCC1CN(C(=O)OC(C)(C)C)C1)C(=O)[*:2])[*:1]; hPhe(3-F,4-CF3) = N[C@@H](CCc1ccc(C(F)(F)F)c(F)c1)C(=O)O; NEtPhe(4-CF3) = CCN[C@@H](Cc1ccc(C(F)(F)F)cc1)C(=O)O; X65 = O=C([C@H](CCCc1ccc(C(F)(F)F)cc1)N[*:1])[*:2]; X56 = O=C([C@H](CCc1cccc(C(F)(F)F)c1)N[*:1])[*:2]; hPhe(4-CF3) = N[C@@H](CCc1ccc(C(F)(F)F)cc1)C(=O)O; NMePhe(4-Cl) = CN[C@@H](Cc1ccc(Cl)cc1)C(=O)O; NMedβ3hAla = C[C@H](CC(=O)[*:2])N(C)[*:1]; NMeGly(cBu) = CN[C@H](C(=O)O)C1CCC1; NMeCha = CN[C@@H](CC1CCCCC1)C(=O)O; Hyp = O=C(O)[C@@H]1C[C@@H](O)CN1; NMeAhp(2) = CCCCC[C@H](NC)C(=O)O; NMeChg = CN[C@H](C(=O)O)C1CCCCC1; NMeF = CN[C@@H](Cc1ccccc1)C(=O)O; NMeI = CC[C@H](C)[C@H](NC)C(=O)O; NMeD = CN[C@@H](CC(=O)O)C(=O)O; NMeL = CN[C@@H](CC(C)C)C(=O)O; NMeV = CN[C@H](C(=O)O)C(C)C; d(β3hA) = C[C@@H](N)CC(=O)O; Pip = O=C(O)[C@@H]1CCCCN1; NMeA = CN[C@@H](C)C(=O)O; Piperidide = C1CCN(*)CC1; Ac5c = NC1(C(=O)O)CCCC1; Aze = O=C(O)[C@@H]1CCN1; Ac4c = NC1(C(=O)O)CCC1; Sar = CNCC(=O)O

Molecular target: protein-protein interaction between Kras and SOS1 (biotin-tagged human Kras loaded with GDP, His-tagged human SOS1) (Homo sapiens (Human), UniProt P01116, G12D)
Experiment: Protein-protein interaction inhibition between Kras and SOS1 (KrasG12D-SOS PPI) using AlphaScreen;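 also: kras produced in E. coli, Ni-coupled donor beads and streptavidin acceptor beads, excitation 680 nm with emission detected at 520–620 nm via singlet oxygen transfer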
Format: biochemical
Conditions: AlphaScreen; biotin-tagged human Kras loaded with GDP, His-tagged human SOS1; read-out: KRAS G12D-SOS PPI IC50

SMILES | IC50 [nM]
CC(C)C[C@H]1C(=O)N[C@@H](C(C)C)C(=O)N(C)[C@@H](C)C(=O)N2CC[C@H]2C(=O)N(C)[C@@H](CC2CCCCC2)C(=O)N(C)CC(=O)N[C@@H](CCc2ccc(C(F)(F)F)c(Cl)c2)C(=O)N2CCC[C@H]2C(=O)NC2(CCCC2)C(=O)N(C)[C@@H](C(C)C)C(=O)N(C)[C@H](C(=O)N2CCCCC2)CC(=O)N1C [Compound 1791] ([NMeL]V[NMeA][Aze][NMeCha][Sar][hPhe(3-Cl-4-CF3)]P[Ac5c][NMeV][NMeD]-Piperidide; lactam N-11) | 3
CC[C@H](C)[C@@H]1NC(=O)[C@H](CC(C)C)N(C)C(=O)C[C@@H](C(=O)N(C)C)N(C)C(=O)[C@H]([C@@H](C)CC)N(C)C(=O)C2(CCCC2)NC(=O)[C@@H]2CCCN2C(=O)[C@H](CCc2ccc(C(F)(F)F)c(Cl)c2)NC(=O)CN(C)C(=O)[C@H](C2CCC2)N(C)C(=O)[C@@H]2CCN2C(=O)[C@H](C)N(C)C1=O [Compound 1961] ([NMeL]I[NMeA][Aze][NMeGly(cBu)][Sar][hPhe(3-Cl-4-CF3)]P[Ac5c][NMeI][NMeD]-NMe2; lactam N-11) | 1.8
CC[C@H](C)[C@@H]1NC(=O)[C@H](C)N(C)C(=O)C[C@@H](C(=O)N2CCCCC2)N(C)C(=O)[C@H](C2CCCCC2)N(C)C(=O)C2(CCCC2)NC(=O)[C@@H]2CCCN2C(=O)[C@H](CCCc2ccc(C(F)(F)F)cc2)NC(=O)CN(C)C(=O)[C@H](CC2CCCCC2)N(C)C(=O)CN(C)C(=O)CN(C)C1=O [Compound 2055, (3S,9S,18S,21S,25S,28S,34S)-28-cyclohexyl-9-(cyclohexylmethyl)-7,10,13,16,21,22,26,29-octamethyl-18-[(1S)-1-methylpropyl]-25-(piperidine-1-carbonyl)-3-[3-[4-(trifluoromethyl)phenyl]propyl]spiro[1,4,7,10,13,16,19,22,26,29,32-undecazabicyclo[32.3.0]heptatriacontane-31,1′-cyclopentane]-2,5,8,11,14,17,20,23,27,30,33-undecone] ([NMeA]I[Sar][Sar][NMeCha][Sar][X65]P[Ac5c][NMeChg][NMeD]-Piperidide; lactam N-11) | 27
CC[C@H](C)[C@@H]1NC(=O)[C@@H]2CCCCN2C(=O)C[C@@H](C)NC(=O)[C@H](CC(C)C)N(C)C(=O)[C@H](Cc2ccccc2)N(C)C(=O)[C@@H]2CCCN2C(=O)[C@H](CCc2ccc(C(F)(F)F)cc2)NC(=O)CN(C)C(=O)[C@H](Cc2ccc(Cl)cc2)N(C)C(=O)CN(C)C(=O)CN(C)C1=O [Compound 632] (cyclo(I[Sar][Sar][NMePhe(4-Cl)][Sar][hPhe(4-CF3)]P[NMeF][NMeL][d(β3hA)][Pip])) | 73
CCO[C@@H]1C[C@H]2C(=O)NC3(CCC3)C(=O)N(C)[C@@H](C3CCCCC3)C(=O)N(C)[C@H](C)CC(=O)N(C)[C@@H](CC(C)C)C(=O)N[C@@H]([C@@H](C)CC)C(=O)N[C@@H](C)C(=O)N3CC[C@H]3C(=O)N(CC)[C@@H](Cc3ccc(C(F)(F)F)cc3)C(=O)N(C)CC(=O)N[C@@H](CCc3ccc(C(F)(F)F)c(Cl)c3)C(=O)N2C1 [Compound 743] (cyclo(A[Aze][NEtPhe(4-CF3)][Sar][hPhe(3-Cl-4-CF3)][Hyp](Et)[Ac4c][NMeChg][NMedβ3hAla][NMeL]I)) | 40
CC[C@H](C)[C@@H]1NC(=O)[C@H](CC(C)C)N(C)C(=O)C[C@@H](C)N(C)C(=O)[C@H]([C@@H](C)CC)N(C)C(=O)C2(CCCC2)NC(=O)[C@@H]2CCCN2C(=O)[C@H](CCc2ccc(C(F)(F)F)c(F)c2)NC(=O)CN(C)C(=O)[C@H](CC2CCCCC2)N(C)C(=O)[C@@H]2CCN2C(=O)[C@H](C)N(C)C1=O [Compound 859] (cyclo([Ac5c][NMeI][NMedβ3hAla][NMeL]I[NMeA][Aze][NMeCha][Sar][hPhe(3-F,4-CF3)]P)) | 64
CC[C@H](C)[C@@H]1NC(=O)[C@H](C)N(C)C(=O)C[C@@H](C)NC(=O)[C@H](CC(C)C)N(C)C(=O)[C@H](Cc2ccccc2)N(C)C(=O)[C@H](CC(C)C)NC(=O)[C@H](CCc2cccc(C(F)(F)F)c2)NC(=O)CN(C)C(=O)[C@H](Cc2ccc(Cl)cc2)N(C)C(=O)CN(C)C(=O)CN(C)C1=O [Compound 2095] (cyclo(I[Sar][Sar][NMePhe(4-Cl)][Sar][X56]L[NMeF][NMeL][d(β3hA)][NMeA])) | 240
CCCCC[C@H]1C(=O)N[C@@H]([C@@H](C)CC)C(=O)N(C)[C@@H](C)C(=O)N2CC[C@H]2C(=O)N(C)[C@@H](CC2CCCCC2)C(=O)N(C)CC(=O)N[C@@H](CCc2ccc(C(F)(F)F)c(Cl)c2)C(=O)N2CCC[C@H]2C(=O)NC2(CCCC2)C(=O)N(C)[C@@H](C(C)C)C(=O)N(C)[C@H](C(=O)N2CCCCC2)CC(=O)N1C [Compound 1705] ([NMeAhp(2)]I[NMeA][Aze][NMeCha][Sar][hPhe(3-Cl-4-CF3)]P[Ac5c][NMeV][NMeD]-Piperidide; lactam N-11) | 9.8
CC[C@H](C)[C@@H]1NC(=O)[C@H](CC(C)C)N(C)C(=O)C[C@@H](C(=O)N2CCCCC2)N(C)C(=O)[C@H](C2CCCCC2)N(C)C(=O)C2(CCCC2)NC(=O)[C@H](CCC2CN(C(=O)OC(C)(C)C)C2)N(C)C(=O)[C@H](CCc2ccc(C(F)(F)F)c(Cl)c2)NC(=O)CN(C)C(=O)[C@H](CC2CCCCC2)N(C)C(=O)CN(C)C(=O)CN(C)C1=O [Compound 2056, tert-butyl 3-[2-[(8S,11S,17S,26S,29S,33S,36S)-11-[2-[3-chloro-4-(trifluoromethyl)phenyl]ethyl]-36-cyclohexyl-17-(cyclohexylmethyl)-29-isobutyl-9,15,18,21,24,30,34,37-octamethyl-26-[(1S)-1-methylpropyl]-7,10,13,16,19,22,25,28,31,35,38-undecaoxo-33-(piperidine-1-carbonyl)-6,9,12,15,18,21,24,27,30,34,37-undecazaspiro[4.3 3]octatriacontan-8-yl]ethyl]azetidine-1-carboxylate] ([NMeL]I[Sar][Sar][NMeCha][Sar][hPhe(3-Cl-4-CF3)][X46][Ac5c][NMeChg][NMeD]-Piperidide; lactam N-11) | 13
